Results: PMC6118387, “In silico drug absorption tract: An agent-based biomimetic model for human oral drug absorption” (PLoS ONE, 2018)
Several values for one entry are separate records, joined by “and”; a condition that tells them apart may be missing. Identical values can stand only once. Like-named read-outs stand apart in the source and are kept apart here.

Columns and labels:
[1] = Clinical bioequivalence study: plasma concentrations (LC-MS-MS) and noncompartmental PK after oral tablet; type: in vivo, human
[2] = midazolam, literature referent value, cited from earlier work
[3] = model drug parameter fixed to literature reported value; cited from earlier work
[4] = Referent clinical, midazolam 15 mg tablet oral, N = 15, mean ±1 SD
[5] = human, plasma, Referent clinical, midazolam 15 mg tablet oral, N = 15, mean ±1 SD

Cc1ncc2n1-c1ccc(Cl)cc1C(c1ccccc1F)=NC2 [Midazolam, midazolam]
CL/F [1, 4]: 57.72 ± 19.31 L/h
V/F [1, 4]: 205.20 ± 56.75 L
Tmax ([1]; Referent clinical, midazolam 15 mg tablet oral, N = 15, median): 30 min
Cmax ([1]; human, plasma, oral, 15 mg, midazolam, peak of the mean clinical concentration-time profile over 24 hours): 90.2 ng/mL
concentration at 0 h ([1]; human, plasma, po, 15 mg, midazolam 15 mg oral, plasma, mean (±1 SD) N=15, read-out: Concentration, Referent): 0 ng/mL
concentration at 0 h ([1]; human, plasma, po, 15 mg, midazolam 15 mg oral, plasma, one value per subject (columns A1-A8, B1-B7), read-out: Concentration, individual subjects): 0 ng/mL
concentration at 0.25 h ([1]; human, plasma, po, 15 mg, midazolam 15 mg oral, plasma, 0.25 h, mean (±1 SD) N=15, read-out: Concentration, Referent): 12.2 ± 14.4 ng/mL
concentration at 0.5 h ([1]; human, plasma, po, 15 mg, midazolam 15 mg oral, plasma, 0.5 h, mean (±1 SD) N=15, read-out: Concentration, Referent): 90.2 ± 47.6 ng/mL
concentration at 1 h ([1]; human, plasma, po, 15 mg, midazolam 15 mg oral, plasma, 1 h, mean (±1 SD) N=15, read-out: Concentration, Referent): 56.6 ± 22.6 ng/mL
concentration at 1.5 h ([1]; human, plasma, po, 15 mg, midazolam 15 mg oral, plasma, 1.5 h, mean (±1 SD) N=15, read-out: Concentration, Referent): 46.8 ± 12.5 ng/mL
concentration at 2 h ([1]; human, plasma, po, 15 mg, midazolam 15 mg oral, plasma, 2 h, mean (±1 SD) N=15, read-out: Concentration, Referent): 47.8 ± 19.1 ng/mL
concentration at 2.5 h ([1]; human, plasma, po, 15 mg, midazolam 15 mg oral, plasma, 2.5 h, mean (±1 SD) N=15, read-out: Concentration, Referent): 41.1 ± 15.1 ng/mL
concentration at 3 h ([1]; human, plasma, po, 15 mg, midazolam 15 mg oral, plasma, 3 h, mean (±1 SD) N=15, read-out: Concentration, Referent): 40.3 ± 26.1 ng/mL
concentration at 4 h ([1]; human, plasma, po, 15 mg, midazolam 15 mg oral, plasma, 4 h, mean (±1 SD) N=15, read-out: Concentration, Referent): 32.4 ± 21.1 ng/mL
concentration at 6 h ([1]; human, plasma, po, 15 mg, midazolam 15 mg oral, plasma, 6 h, mean (±1 SD) N=15, read-out: Concentration, Referent): 15.6 ± 9.4 ng/mL
concentration at 8 h ([1]; human, plasma, po, 15 mg, midazolam 15 mg oral, plasma, 8 h, mean (±1 SD) N=15, read-out: Concentration, Referent): 9.33 ± 5.73 ng/mL
concentration at 10 h ([1]; human, plasma, po, 15 mg, midazolam 15 mg oral, plasma, 10 h, mean (±1 SD) N=15, read-out: Concentration, Referent): 5.75 ± 4.06 ng/mL
concentration at 12 h ([1]; human, plasma, po, 15 mg, midazolam 15 mg oral, plasma, 12 h, mean (±1 SD) N=15, read-out: Concentration, Referent): 3.48 ± 2.75 ng/mL
concentration at 24 h ([1]; human, plasma, po, 15 mg, midazolam 15 mg oral, plasma, 24 h, mean (±1 SD) N=15, read-out: Concentration, Referent): 0.41 ± 0.63 ng/mL
AUC [1, 5]: 296 ± 126 ng·h/mL
Cmax [1, 5]: 101 ± 33 ng/mL
k el [1, 5]: 7.78e-05 s⁻¹
Concentration, individual subjects ([1]; midazolam 15 mg oral, plasma, 2.5 h, one value per subject (columns A1-A8, B1-B7)): 54.91 ng/mL and 40.38 ng/mL and 25.80 ng/mL and 40.78 ng/mL and 31.74 ng/mL and 48.76 ng/mL and 34.21 ng/mL and 20.63 ng/mL and 33.92 ng/mL and 30.24 ng/mL and 57.61 ng/mL and 24.84 ng/mL and 35.19 ng/mL and 58.33 ng/mL and 78.77 ng/mL
Concentration, individual subjects ([1]; midazolam 15 mg oral, plasma, 3 h, one value per subject (columns A1-A8, B1-B7)): 52.06 ng/mL and 27.73 ng/mL and 21.71 ng/mL and 25.74 ng/mL and 36.83 ng/mL and 69.41 ng/mL and 35.36 ng/mL and 17.14 ng/mL and 26.32 ng/mL and 22.37 ng/mL and 41.78 ng/mL and 21.67 ng/mL and 38.29 ng/mL and 47.32 ng/mL and 120.12 ng/mL
Concentration, individual subjects ([1]; midazolam 15 mg oral, plasma, 4 h, one value per subject (columns A1-A8, B1-B7)): 42.50 ng/mL and 20.80 ng/mL and 19.34 ng/mL and 20.60 ng/mL and 28.96 ng/mL and 77.03 ng/mL and 23.38 ng/mL and 14.36 ng/mL and 20.65 ng/mL and 15.37 ng/mL and 24.77 ng/mL and 22.90 ng/mL and 30.75 ng/mL and 41.37 ng/mL and 83.44 ng/mL
Concentration, individual subjects ([1]; midazolam 15 mg oral, plasma, 6 h, one value per subject (columns A1-A8, B1-B7)): 24.75 ng/mL and 8.47 ng/mL and 11.09 ng/mL and 8.46 ng/mL and 15.04 ng/mL and 29.67 ng/mL and 12.43 ng/mL and 6.69 ng/mL and 9.53 ng/mL and 10.09 ng/mL and 12.41 ng/mL and 7.25 ng/mL and 15.05 ng/mL and 24.91 ng/mL and 38.15 ng/mL
Concentration, individual subjects ([1]; midazolam 15 mg oral, plasma, 8 h, one value per subject (columns A1-A8, B1-B7)): 14.78 ng/mL and 4.58 ng/mL and 5.87 ng/mL and 3.98 ng/mL and 6.08 ng/mL and 15.63 ng/mL and 6.16 ng/mL and 4.20 ng/mL and 7.07 ng/mL and 8.11 ng/mL and 11.11 ng/mL and 3.58 ng/mL and 8.96 ng/mL and 17.42 ng/mL and 22.42 ng/mL
Concentration, individual subjects ([1]; midazolam 15 mg oral, plasma, 10 h, one value per subject (columns A1-A8, B1-B7)): 9.22 ng/mL and 2.05 ng/mL and 4.27 ng/mL and 2.24 ng/mL and 3.91 ng/mL and 8.93 ng/mL and 3.37 ng/mL and 2.53 ng/mL and 5.05 ng/mL and 3.40 ng/mL and 6.04 ng/mL and 1.38 ng/mL and 5.79 ng/mL and 13.69 ng/mL and 14.29 ng/mL
Concentration, individual subjects ([1]; midazolam 15 mg oral, plasma, 12 h, one value per subject (columns A1-A8, B1-B7)): 5.37 ng/mL and 1.26 ng/mL and 2.53 ng/mL and 1.54 ng/mL
F (absolute oral bioavailability) [2]: 31–72%
Fa × Fg [2]: 48–76%
Fh [2]: 36–57%
Fa × Fg ([2]; listed as midazolam): 48–76%
Fh ([2]; listed as midazolam): 36–57%
logP, In silico Logarithm of partition coefficient [3]: 3.6
